Reference: US6610297B1, “Peptide immunogens for vaccination against and treatment of allergy” (Novartis AG, priority 1996, dated 2003)
Where no end group is shown, it is not given here.

Experiments:
BSW17 [1] = test: Recognition of phage-displayed peptides by BSW17 (phage display library screening); type: binding; set-up: key: + + +: +(++), +/− = intensity of recognition by BSW 17; +(++), +/− = intensity of recognition by BSW 17; +(++), +/− = intensity of recognition by BSW 17; + /−: +(++), +/− = intensity of recognition by BSW 17; details: phage-displayed circular peptides, group A
Description: Bacteriophage particles specifically recognized by BSW17 are identified by biopanning of phage libraries displaying linear or circular random peptides from 6 to 15 amino acid residues in length fused to phage peptides pIII and pVIII, respectively. For amplification of phage libraries, 2 ml of a liquid culture of E. coli XL-I blue grown in SB medium to OD600=1.0 are incubated with 10^10 phages for 15 minutes at room temperature. 10 ml of SB medium containing […] of tetracycline and 20 μg/ml of carbenicillin are added and 10 μl, 1 μl and 0.1 μl, respectively, are plated on LB plates containing 100 μg/ml of carbenicillin. The culture is incubated at 37° with vigorous shaking for one hour, then 100 ml of SB containing 10 μg/ml of tetracycline and 50 μg/ml of carbenicillin are added and incubation is continued for one hour. 10^12 cfu of VCS M13 helper phage are added. After 2 hours with vigorous shaking at 37°. kanamycin is added to a final concentration of 70 μg/ml and incubation continued overnight. After centrifugation at 4000 g and 4° for 20 minutes, supernatants are mixed with 38 ml of an ice-cold sterile filtered solution of 12% NaCl and 16% PEG 8000, cooled on ice for 30 minutes and centrifuged for 30 minutes at 10000 g at 4°. The phage pellet is solubilized in 2 ml of TBS containing 1.5% casein and stored at 4°. For biopanning, COSTAR® RIA plates (Costar 3690) are coated over-night at 4° with 20 μg/ml of BSW17 in 0.1 M carbonate buffer, pH 9.6, and thereafter blocked with TBS containing 1.5% casein. 2×10^11 cfu of phages are added and incubated at 37° for 2 hours, then washed ten times with PBS/0.1% Tween 20. The wells are rinsed with water and the bound phages eluted with a total of 200 μl of 0.1 M HCl, pH 2.2 for 10 minutes. Eluted phages are neutralized with 2 M Tris base and amplified as described above.
For the selection of positive clones 50 μl of a E. coli XL-I blue liquid culture grown in SB-medium to OD600=1.0 are incubated with 1 μl of a 10^−8 dilution of amplified phages after the 3rd round of panning for 15 minutes at room temperature, then plated on LB plates containing 100 μg/ml of carbenicillin and grown overnight. Colonies are randomly picked and plated on LB plates containing 100 μg/ml of carbenicillin. After 4 hours at 37°, nitrocellulose filters soaked with 10 mM of IPTG are put on top and incubation continued overnight at 32°. Filters are removed and incubated at 37° for 30 minutes in a CHCl3-atmosphere. […]
The nucleotide sequence of the DNA encoding these peptides was determined. […]

BSW17/IgE interaction = test: Competition ELISA: inhibition of BSW17-HRP/IgE interaction by sera of immunized rabbits; type: in vivo, human; details: rabbit serum 1:50, BSW17-HRP 1:50000
Description: After washing, mAb BSW17 labeled with horseradish peroxidase (BSW17-HRP) is added in a 1:50000 dilution in TBS containing 1.5% casein for 4 hours. Subsequent washing and staining is performed as described.

[2] = system: 8E7, 3G9, 5H10 (monoclonal anti-Cε3 antibodies) and 5H5/F8 (against human FcεRIα); test: ELISA: binding of mimotope-displaying phage particles to other coated monoclonal antibodies; details: FIG. 5; phage titer 10^9 cfu/ml; 10 μg coated antibody
Description: (§1) 10 μg of BSW17 and various monoclonal antibodies are coated to the wells of COSTAR® plates following standard ELISA procedures. After blocking with BSA, the wells are incubated with 100 μl of standard ELISA incubation buffer containing bacteriophage particles obtained from phage-infected bacterial culture supernatants with a phage titer of 10^9 cfu/ml. After washing, the plates are incubated with 5 μg of horseradish peroxidase (HRP)-coupled anti-M13 antiserum (Pharmacia, Uppsala, Sweden) in incubation buffer. All incubations are carried out at room temperature for 1 hour. After final washing, phage particles bound to the coated antibodies are visualized via the bound HRP-anti M13 serum by chromogenic substrate development following standard ELISA procedure. […] As negative non-antibody control, recombinant FcεRI α-chain and as positive control, wells coated with polyclonal anti-M13 antiserum are included.

BSW17/IgE binding = test: Competition RIA: binding of 125I-labelled IgE to BSW17 in the presence of phage particles; set-up: species or system human; details: FIG. 6; for Inhibition of labelled IgE binding to BSW17, equal to non-labelled IgE concentration: 10^11 cfu/ml of phage particles, estimated from standard inhibition curve
Description: Bacterial cells are grown in SB containing 10 μg/ml of tetracycline and 50 μg/ml of carbenicillin to OD600=0.4, then VCS M13 helper phage is added and incubation continued for 2 hours at 37°. Then kanamycin is added to a final concentration of 70 μg/ml and incubation continued overnight. Phage particles are precipitated with polyethyleneglycol. Soft RIA plates are coated with 20 μg/ml of BSW17 in 0.1 M carbonate buffer pH 9.6 and then blocked with TBS containing 1.5% casein. Human IgE is ^125I-labelled by the chloramine-T method and 100000 cpm per well are used for binding to BSW17 coated to the RIA plates in the presence of increasing concentrations of non-labelled IgE (standard curve) or phage particles, respectively. All experiments are performed at room temperature and plates are washed 3 times with 0.9% NaCl+0.05% Tween 20, cut in pieces and each well was measured in a γ-counter for 1 minute.
Closed circles show a standard inhibition curve by unlabelled IgE to allow an estimation of inhibition of labeled IgE binding in the presence of 10^11 cfu/ml of phage particles. The inhibition achieved with the phage clones is equal to non-labelled IgE concentrations of 1 μg/ml and 1.7 μg/ml, respectively.

human IgE = test: Anti-IgE response in rabbits immunized with BSW17 mimotope displaying phage (dot ELISA of serum); type: in vivo; details: rabbit serum 1:200 after third boost
Description: To test the feasibility of a BSW17 mimotope-based vaccine approach, rabbits are immunized with phage particles displaying BSW17 mimotope peptides and helper phage VCS M13 as control, respectively. 10^12 cfu of freshly prepared phage particles are dialyzed against PBS at 4°. 1 ml is emulsified with complete Freund's adjuvant for the first immunization, or with 1 ml incomplete Freund's adjuvant for boosting. Immunization is repeated subcutaneously every 14 days. After the third boost, 12 ml of blood are taken, clotted for 4 hours at room temperature in glass vials and centrifuged for 10 minutes at 2000 g. The supernatants are tested for the presence of anti-human IgE antibodies by ELISA. Human IgE from three different individuals (SUS11-IgE; PS-IgE; WT-IgE) is diluted in PBS at a concentration of 50 μg/ml and 1 μl aliquots are dotted onto nitrocellulose. Nitrocellulose is blocked in TBS containing 1.5% casein for 1 hour. Rabbit serum is diluted 1:200 in TBS containing 1.5% casein and incubated overnight. Washing is performed in TBS, TBS-0.05% Tween 20 and TBS for 10 minutes each. Developing goat anti-rabbit-HRP is 1:1.000 diluted in TBS containing 1.5% casein and incubated for 4 hours. Washing and staining is performed as described. […] However, in addition to a massive immune response to the bacteriophage pVIII coat protein, sera of rabbits immunized with BSW17 mimotope phages also contain strongly elevated levels of antibodies which specifically recognize human IgE: […]

BSW17 [3] = test: ELISA: binding of mimotope-displaying phage particles to coated BSW17; details: FIG. 5; phage titer 10^9 cfu/ml; 10 μg coated antibody
Description: as §1

BSW17 [4] = test: ELISA: recognition of coated mimotope conjugates by BSW17; type: binding; details: FIGS. 8a, 8b, 9a, 9b
Description: Microtiter plate wells are coated with 1 μg each of SDS236, SDS237 or free KLH and incubated with increasing concentrations of BSW17. Bound antibody is detected with goat anti-mouse IgG-HRP (gamIgG-HRP). The data shown represents means of duplicates minus background binding to uncoated (BSA-blocked) wells.
FIG. 8b summarizes ELISA data obtained with various BSW17 mimotope conjugates coupled to the carrier protein using several chemical coupling procedures. Microtiter plate wells are coated with 5 μg each of the mimotope conjugates, or free KLH, and incubated with 10 μg of BSW17. Bound antibody is detected with gamIgG-HRP. The data shown represents means of duplicates minus background binding to uncoated (BSA-blocked) wells. In contrast to free KLH, each BSW17 mimotope conjugate is found to be recognized by BSW17.
In FIGS. 9a and 9b it is shown that BSW17 mimotopes coupled to KLH or BSA are specifically recognized by BSW17 and not by the non-related monoclonal antibodies 3G9 (anti-human Cε3) and 5H5/F8 (anti-human RIα). Again, microtiter plate wells are coated with 5 μg each of the mimotope conjugates shown and incubated with 10 μg of the corresponding monoclonal antibody. Bound antibody is detected with gamIgG-HRP. The data shown represents means of duplicates minus background binding to uncoated (BSA-blocked) wells.

human IgM = human IgM (Homo sapiens, UniProt P01871); test: Isotype specificity ELISA of sera of immunized rabbits: IgM; type: in vivo; details: FIG. 12; serum 1:50
Description: The isotype specificity of the anti-human IgE immune response in the immunized rabbits is monitored by ELISA: microtiter plate wells are each coated with 3 μg of human IgE (SUS-11), IgA, IgG, and IgM, respectively, and incubated with 100 μl of serum samples, diluted 1:50 with ELISA incubation buffer. Rabbit antibodies bound by the immobilized human antibodies are detected by incubation with goat garIgG-HRP. The measured OD405 values are corrected by the read-out obtained with 1:50 diluted pre-immune serum of each corresponding rabbit, diluted 1:50. The data given in FIG. 12 represents mean values of duplicate measurements.

human IgE (human) = human IgE (human) (UniProt P01854); test: cell-based or functional assay
Chain of human IgE (human) (P01854 other isoform, or with tags, fused parts or gaps): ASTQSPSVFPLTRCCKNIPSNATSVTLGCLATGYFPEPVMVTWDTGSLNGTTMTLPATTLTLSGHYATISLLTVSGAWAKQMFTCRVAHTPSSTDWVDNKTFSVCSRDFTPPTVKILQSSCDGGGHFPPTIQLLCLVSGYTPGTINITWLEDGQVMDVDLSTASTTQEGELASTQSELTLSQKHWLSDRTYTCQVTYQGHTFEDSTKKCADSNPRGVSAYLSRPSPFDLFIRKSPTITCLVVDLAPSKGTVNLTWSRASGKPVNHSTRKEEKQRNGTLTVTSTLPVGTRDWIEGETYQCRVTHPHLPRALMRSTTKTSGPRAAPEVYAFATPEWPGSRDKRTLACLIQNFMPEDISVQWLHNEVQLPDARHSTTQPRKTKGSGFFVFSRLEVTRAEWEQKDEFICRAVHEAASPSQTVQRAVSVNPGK

Chain of BSW17/IgE interaction (P01854 1-428 isoform P01854-1): as the sequence (P01854 other isoform, or with tags, fused parts or gaps) above
Chain of human IgE (P01854 1-428 isoform P01854-1): as the sequence (P01854 other isoform, or with tags, fused parts or gaps) above
Chain of human IgM (P01871 1-433 limits assumed): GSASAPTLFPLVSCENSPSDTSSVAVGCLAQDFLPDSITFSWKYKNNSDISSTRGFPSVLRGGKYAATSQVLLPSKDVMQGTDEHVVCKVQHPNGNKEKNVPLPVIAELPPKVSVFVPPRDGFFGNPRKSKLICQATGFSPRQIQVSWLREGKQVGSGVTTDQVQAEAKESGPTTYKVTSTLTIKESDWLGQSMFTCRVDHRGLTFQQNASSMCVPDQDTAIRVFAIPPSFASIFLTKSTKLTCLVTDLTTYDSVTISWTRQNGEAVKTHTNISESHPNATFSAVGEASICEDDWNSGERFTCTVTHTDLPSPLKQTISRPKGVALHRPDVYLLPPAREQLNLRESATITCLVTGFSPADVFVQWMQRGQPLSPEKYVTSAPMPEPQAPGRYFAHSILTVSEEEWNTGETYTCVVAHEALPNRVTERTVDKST
Chain of human IgM (P01591 23-159 partner): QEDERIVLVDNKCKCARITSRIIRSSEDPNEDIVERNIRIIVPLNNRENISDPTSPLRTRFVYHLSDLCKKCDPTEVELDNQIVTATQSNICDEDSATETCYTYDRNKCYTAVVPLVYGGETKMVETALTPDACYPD

Substance: CINHRGYWVC (cysteine pairing not given here) [PhBSW.29-8]
- intensity of recognition by BSW 17 (BSW17 [1]): + + +
- Recognition of different IgE (% inhibition) PS-IgE (BSW17/IgE interaction): 48%
- Recognition of different IgE (% inhibition) SUS11-IgE (BSW17/IgE interaction): 52%
- Recognition of different IgE (% inhibition) WT-IgE (BSW17/IgE interaction): 65%
- Recognition of different IgE (% inhibition) Zavasal-IgE (BSW17/IgE interaction): 47%
- Binding of phage particles to other antibodies (8E7, 3G9, 5H10, 5H5/F8) [2]: to no other antibodies
- Inhibition of the binding of BSW17 to IgE (in words) (BSW17/IgE binding): inhibit the binding of BSW17 to IgE
- Inhibition of labelled IgE binding to BSW17, equal to non-labelled IgE concentration (BSW17/IgE binding): 1.7 µg/mL
- Recognition of IgE (relative OD) PS-IgE (human IgE): 9.0 ± 0.4 relative OD
- Recognition of IgE (relative OD) SUS11-IgE (human IgE): 16.5 ± 0.7 relative OD
- Recognition of IgE (relative OD) WT-IgE (human IgE): 25.0 ± 1.0 relative OD
- Binding of phage particles to BSW17 (BSW17 [3]): very specifically bind to BSW17

Substance: CRRHNYGFWVC (cysteine pairing not given here) [PhBSW.6-9]
- intensity of recognition by BSW 17 (BSW17 [1]): ++
- Recognition of different IgE (% inhibition) PS-IgE (BSW17/IgE interaction): 63%
- Recognition of different IgE (% inhibition) SUS11-IgE (BSW17/IgE interaction): 34%
- Recognition of different IgE (% inhibition) WT-IgE (BSW17/IgE interaction): 65%
- Recognition of different IgE (% inhibition) Zavasal-IgE (BSW17/IgE interaction): 51%
- Binding of phage particles to other antibodies (8E7, 3G9, 5H10, 5H5/F8) [2]: to no other antibodies
- Inhibition of the binding of BSW17 to IgE (in words) (BSW17/IgE binding): inhibit the binding of BSW17 to IgE
- Inhibition of labelled IgE binding to BSW17, equal to non-labelled IgE concentration (BSW17/IgE binding): 1 µg/mL
- Recognition of IgE (relative OD) PS-IgE (human IgE): 8.0 ± 0.6 relative OD
- Recognition of IgE (relative OD) SUS11-IgE (human IgE): 5.0 ± 0.2 relative OD
- Recognition of IgE (relative OD) WT-IgE (human IgE): 21.0 ± 1.0 relative OD
- Binding of phage particles to BSW17 (BSW17 [3]): very specifically bind to BSW17

Substance: CTRLHTGYWVC (cysteine pairing not given here) [Seq.id.no. 20]
- intensity of recognition by BSW 17 (BSW17 [1]): +

Substance: Cys Thr Leu Ser Val Phe Gly Tyr Trp Val Cys (CTLSVFGYWVC; cysteine pairing not given here; also: circular) [Seq.id.no. 21]
- intensity of recognition by BSW 17 (BSW17 [1]): + /−

Substance: cyclic GEFCINHRGYWVCGDPA-KLH [SDS236]
- Recognition of conjugate by BSW17 (BSW17 [4]): recognized by BSW17 in a dose-dependent manner

Substance: cyclic GEFCRRHNYGFWVCGDPA-KLH [SDS214]
- Recognition of human IgM by serum of immunized rabbit (human IgM): partial recognition of human IgM

Substance: keyhole limpet hemocyanin [KLH]
- Recognition of conjugate by BSW17 (BSW17 [4]): no binding

Substance: linear KTKGSGFFVF-KLH [SDS237]
- Recognition of conjugate by BSW17 (BSW17 [4]): recognized by BSW17 in a dose-dependent manner

Substance: monoclonal antibody BSW17
- Specific histamine release (%), A: during sensitization with IgE and BSW17; Experiment 1 (human IgE (human)): 3.6%
- Specific histamine release (%), A: during sensitization with IgE and BSW17; Experiment 2 (human IgE (human)): 3%
- Specific histamine release (%), A: during sensitization with IgE and BSW17; Experiment 3 (human IgE (human)): 4.4%
- Specific histamine release (%), B: after triggering with Le27; cells sensitized with IgE and BSW17; Experiment 1 (human IgE (human)): 3.1%
- Specific histamine release (%), B: after triggering with Le27; cells sensitized with IgE and BSW17; Experiment 2 (human IgE (human)): 1.5%
- Specific histamine release (%), B: after triggering with Le27; cells sensitized with IgE and BSW17; Experiment 3 (human IgE (human)): 0.9%
